Data reported in patent US20260325533A1, “CDK INHIBITOR COMPOUNDS” (ALEKSIA THERAPEUTICS, INC., priority 2023, published 2026).
Where two headings read alike, the source gives them in different places. Each block holds one compound with its values, some of them ahead of it.

How the values were obtained:
Type in all cases: biochemical
CDK1/CCNB1 = CDK1/CCNB1 (Homo sapiens, UniProt P06493); assay: CDK1 homogeneous time-resolved fluorescence (HTRF) kinase assay; details: CDK1/CCNB
In short: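 CDK1/CCNB1 0.5 nM + cpd, 20 min 23 °C; add 1 mM ATP, 50 nM ULight-4E-BP1 peptide, 60 min 23 °C; stop 10 mM EDTA; 2 nM Eu-Ab, 60 min; HTRF 665 nm. 11-pt half-log, top 10 μM typical; IC50.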

CDK2/CCNE1 = CDK2/CCNE1 (Homo sapiens, UniProt P24941); assay: CDK2 homogeneous time-resolved fluorescence (HTRF) kinase assay; details: CDK2/CCNE
In short: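 IC50 derived from 11-point, half-log dilutions (usually top 10 μM) of compound, 1% DMSO. Kinase (3 nM CDK2/CCNE1) was preincubated with compound 20 min, then phosphorylated 50 nM ULight-4E-BP1 peptide at 1 mM ATP for 60 min, 23 °C. Europium-antibody TR-FRET read after EDTA stop.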

CDK4/CCND3 = CDK4/CCND3 (Homo sapiens, UniProt P11802); assay: CDK4 homogeneous time-resolved fluorescence (HTRF) kinase assay; details: CDK4/CCND
In short: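 HTRF kinase assay, CDK4/CCND3 1.5 nM, ATP 1 mM, ULight-4E-BP1 peptide 50 nM, 23 °C, 60 min reaction after 20 min preincubation. Eu-anti-pThr37/46 antibody detection. 11-pt half-log curves from 10 μM → IC50.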

CDK6/CCND1 = CDK6/CCND1 (Homo sapiens, UniProt Q00534); assay: CDK6 homogeneous time-resolved fluorescence (HTRF) kinase assay; details: CDK6/CCND
In short: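 Recombinant CDK6/CCND1 (1 nM final) was preincubated with compound for 20 min at 23 °C in HEPES buffer with MgCl2, EGTA, DTT and Tween 20. Kinase reaction then ran 60 min at 23 °C with 1 mM ATP and 50 nM ULight-4E-BP1 (Thr37/46) peptide, and was stopped with EDTA.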

[1] = 25-250 nM marked x, read-out: CDK1/CCNB IC50 25-250 nM
[2] = <25 nM, read-out: CDK2/CCNE IC50 <25 nM
[3] = <25 nM, read-out: CDK4/CCND IC50 <25 nM
[4] = <25 nM, read-out: CDK6/CCND IC50 <25 nM
[5] = >250 nM, read-out: CDK1/CCNB IC50 >250 nM
[6] = <25 nM, read-out: CDK2/CCNE IC50, <25 nM
[7] = >250 nM, 1 mM ATP, read-out: CDK6/CCND IC50, >250 nM
[8] = x = IC50 >250 nM, read-out: CDK1/CCNB IC50 (>250 nM column)
[9] = x = IC50 <25 nM, read-out: CDK2/CCNE IC50 (<25 nM)
[10] = x = IC50 >250 nM, read-out: CDK4/CCND IC50 (>250 nM column)
[11] = x = IC50 >250 nM, read-out: CDK6/CCND IC50 (>250 nM column)
[12] = >250 nM marked x, read-out: CDK1/CCNB IC50 >250 nM
[13] = 25-250 nM marked x, read-out: CDK2/CCNE IC50 25-250 nM
[14] = >250 nM marked x, read-out: CDK4/CCND IC50 >250 nM
[15] = >250 nM marked x, read-out: CDK6/CCND IC50 >250 nM

Sequence of CDK1/CCNB1 (P06493 whole entry): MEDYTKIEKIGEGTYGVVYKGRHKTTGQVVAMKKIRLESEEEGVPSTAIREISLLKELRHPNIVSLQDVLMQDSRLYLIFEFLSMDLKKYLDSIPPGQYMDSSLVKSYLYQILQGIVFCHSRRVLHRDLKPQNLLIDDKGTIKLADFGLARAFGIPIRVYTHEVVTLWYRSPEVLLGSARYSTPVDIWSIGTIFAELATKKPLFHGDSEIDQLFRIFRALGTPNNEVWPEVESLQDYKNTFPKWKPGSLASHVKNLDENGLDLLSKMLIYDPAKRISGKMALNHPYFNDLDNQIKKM
Sequence of CDK1/CCNB1 (P14635 whole entry partner): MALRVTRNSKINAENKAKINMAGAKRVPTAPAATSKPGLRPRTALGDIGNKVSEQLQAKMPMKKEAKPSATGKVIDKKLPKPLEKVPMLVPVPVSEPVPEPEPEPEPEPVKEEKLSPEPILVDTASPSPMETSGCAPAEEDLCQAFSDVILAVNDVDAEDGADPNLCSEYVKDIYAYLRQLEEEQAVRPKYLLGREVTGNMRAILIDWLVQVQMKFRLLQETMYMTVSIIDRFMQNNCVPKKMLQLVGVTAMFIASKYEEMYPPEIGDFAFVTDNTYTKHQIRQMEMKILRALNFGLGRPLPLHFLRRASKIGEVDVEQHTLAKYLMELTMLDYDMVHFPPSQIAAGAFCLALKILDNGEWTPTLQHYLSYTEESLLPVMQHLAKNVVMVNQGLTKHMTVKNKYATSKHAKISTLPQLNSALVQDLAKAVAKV
Sequence of CDK6/CCND1 (Q00534 whole entry): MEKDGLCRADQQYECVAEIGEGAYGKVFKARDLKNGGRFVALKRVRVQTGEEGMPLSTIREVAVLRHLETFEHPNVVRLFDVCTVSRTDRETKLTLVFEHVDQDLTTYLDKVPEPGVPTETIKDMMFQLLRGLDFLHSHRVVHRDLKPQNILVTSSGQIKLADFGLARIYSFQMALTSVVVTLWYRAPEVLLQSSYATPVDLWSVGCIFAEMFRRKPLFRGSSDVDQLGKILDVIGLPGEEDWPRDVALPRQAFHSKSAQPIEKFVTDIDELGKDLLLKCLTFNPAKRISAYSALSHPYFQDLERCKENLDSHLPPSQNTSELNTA
Sequence of CDK6/CCND1 (P24385 whole entry partner): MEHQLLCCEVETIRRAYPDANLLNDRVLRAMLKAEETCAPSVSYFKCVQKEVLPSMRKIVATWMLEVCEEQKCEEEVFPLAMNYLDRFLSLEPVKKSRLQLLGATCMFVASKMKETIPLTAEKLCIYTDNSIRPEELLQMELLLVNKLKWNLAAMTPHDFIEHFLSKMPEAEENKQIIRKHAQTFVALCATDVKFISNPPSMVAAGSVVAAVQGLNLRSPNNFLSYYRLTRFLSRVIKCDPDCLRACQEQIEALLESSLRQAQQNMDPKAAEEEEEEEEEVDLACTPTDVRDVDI
Sequence of CDK4/CCND3 (P11802 whole entry): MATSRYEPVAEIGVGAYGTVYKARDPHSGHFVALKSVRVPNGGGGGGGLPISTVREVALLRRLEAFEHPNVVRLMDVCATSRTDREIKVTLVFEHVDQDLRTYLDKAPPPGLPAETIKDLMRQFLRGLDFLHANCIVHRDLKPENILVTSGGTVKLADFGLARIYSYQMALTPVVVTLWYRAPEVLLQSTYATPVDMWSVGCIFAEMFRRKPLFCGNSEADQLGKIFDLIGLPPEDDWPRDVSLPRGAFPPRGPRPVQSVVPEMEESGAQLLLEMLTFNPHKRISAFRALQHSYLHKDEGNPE
Sequence of CDK4/CCND3 (P30281 whole entry partner): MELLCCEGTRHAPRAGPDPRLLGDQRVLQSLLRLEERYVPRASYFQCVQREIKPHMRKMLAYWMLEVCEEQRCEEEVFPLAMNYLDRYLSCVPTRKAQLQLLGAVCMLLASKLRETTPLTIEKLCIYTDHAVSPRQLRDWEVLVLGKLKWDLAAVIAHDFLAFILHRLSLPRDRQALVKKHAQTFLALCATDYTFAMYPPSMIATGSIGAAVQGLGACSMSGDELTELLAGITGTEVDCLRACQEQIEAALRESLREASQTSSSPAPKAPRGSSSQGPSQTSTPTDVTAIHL

Structure (SMILES): CS(=O)(=O)N1CCC(Nc2cc3c(C4=CCCCC4)nccc3cn2)CC1 [Ex 102, 5-(cyclohex-1-en-1-yl)-N-(1-(methylsulfonyl)piperidin-4-yl)-2,6-naphthyridin-3-amine]
IC50 (CDK1/CCNB1; [1]): 25 to 250 nM | IC50 (CDK2/CCNE1; [2]): < 25 nM | IC50 (CDK4/CCND3; [3]): < 25 nM | IC50 (CDK6/CCND1; [4]): < 25 nM

Structure (SMILES): Cc1c(-c2nccc3cnc(Nc4ccc(S(=O)(=O)Nc5cccc(C(C)(C)O)c5)cc4)cc23)ccc2c1cnn2CC(C)(C)O [Ex 802, 4-((5-(1-(2-hydroxy-2-methylpropyl)-4-methyl-1H-indazol-5-yl)-2,6-naphthyridin-3-yl)amino)-N-(3-(2-hydroxypropan-2-yl)phenyl)benzenesulfonamide]
IC50 (CDK1/CCNB1; [5]): > 250 nM | IC50 (CDK2/CCNE1; [6]): < 25 nM | IC50 (CDK4/CCND3; >250 nM, read-out: CDK4/CCND IC50, >250 nM): > 250 nM | IC50 (CDK6/CCND1; [7]): > 250 nM

Structure (SMILES): CS(=O)(=O)c1ccc(Nc2cc3c(C#CC4CCN(CC(=O)O)CC4)nccc3cn2)cc1 [Ex 609, 2-(4-((7-((4-(methylsulfonyl)phenyl)amino)-2,6-naphthyridin-1-yl)ethynyl)piperidin-1-yl)acetic acid]
IC50 (CDK1/CCNB1; [8]): > 250 nM | IC50 (CDK2/CCNE1; [9]): < 25 nM | IC50 (CDK4/CCND3; [10]): > 250 nM | IC50 (CDK6/CCND1; [11]): > 250 nM

Structure (SMILES): C=CS(=O)(=O)c1ccc(Nc2cc3c(-c4cccc(CO)c4)nccc3cn2)cc1 [Ex 217, (3-(7-((4-(vinylsulfonyl)phenyl)amino)-2,6-naphthyridin-1-yl)phenyl)methanol]
IC50 (CDK1/CCNB1; [12]): > 250 nM | IC50 (CDK2/CCNE1; [13]): 25 to 250 nM | IC50 (CDK4/CCND3; [14]): > 250 nM | IC50 (CDK6/CCND1; [15]): > 250 nM

Structure (SMILES): CCC1(CC)C(=O)Nc2cc(C#Cc3nccc4cnc(Nc5ccc(S(C)(=O)=O)cc5)cc34)ccc21 [Ex 461, 3,3-diethyl-6-((7-((4-(methylsulfonyl)phenyl)amino)-2,6-naphthyridin-1-yl)ethynyl)indolin-2-one]
IC50 (CDK1/CCNB1; [8]): > 250 nM | IC50 (CDK2/CCNE1; [9]): < 25 nM | IC50 (CDK4/CCND3; [10]): > 250 nM | IC50 (CDK6/CCND1; [11]): > 250 nM

Results, then the compound that gave them:

IC50 (CDK1/CCNB1; [5]): > 250 nM | IC50 (CDK2/CCNE1; [6]): < 25 nM | IC50 (CDK4/CCND3; 25-250 nM, read-out: CDK4/CCND IC50, 25-250 nM): 25 to 250 nM | IC50 (CDK6/CCND1; [7]): > 250 nM
Structure (SMILES): CCN[S@](=N)(=O)c1ccc(Nc2cc3c(-c4ccc5c(cnn5CC(O)(C(F)(F)F)C(F)(F)F)c4C)nccc3cn2)cc1 [Example 682, (S)-N-ethyl-4-((5-(4-methyl-1-(3,3,3-trifluoro-2-hydroxy-2-(trifluoromethyl)propyl)-1H-indazol-5-yl)-2,6-naphthyridin-3-yl)amino)benzenesulfonimidamide]

IC50 (CDK1/CCNB1; [8]): > 250 nM | IC50 (CDK2/CCNE1; [9]): < 25 nM | IC50 (CDK4/CCND3; [10]): > 250 nM | IC50 (CDK6/CCND1; [11]): > 250 nM
Structure (SMILES): CS(=O)(=O)c1ccc(Nc2cc3c(C#Cc4ccc5nc[nH]c5c4)nccc3cn2)cc1 [Ex 648, 5-((1H-benzo[d]imidazol-6-yl)ethynyl)-N-(4-(methylsulfonyl)phenyl)-2,6-naphthyridin-3-amine]

IC50 (CDK1/CCNB1; [1]): 25 to 250 nM | IC50 (CDK2/CCNE1; [2]): < 25 nM | IC50 (CDK4/CCND3; [3]): < 25 nM | IC50 (CDK6/CCND1; [4]): < 25 nM
Structure (SMILES): CS(=O)(=O)N1CCC(Nc2cc3c(-c4ccc5[nH]ccc5c4)nccc3cn2)CC1 [Ex 63, 5-(1H-indol-5-yl)-N-(1-(methylsulfonyl)piperidin-4-yl)-2,6-naphthyridin-3-amine]

IC50 (CDK1/CCNB1; [12]): > 250 nM | IC50 (CDK2/CCNE1; [13]): 25 to 250 nM | IC50 (CDK4/CCND3; [14]): > 250 nM | IC50 (CDK6/CCND1; [15]): > 250 nM
Structure (SMILES): CS(=O)(=O)c1ccc(Nc2cc3c(C4CCC(O)CC4)nccc3cn2)cc1 (racemic) [Ex 215, 4-(7-((4-(methylsulfonyl)phenyl)amino)-2,6-naphthyridin-1-yl)cyclohexan-1-ol]

IC50 (CDK1/CCNB1; x = IC50 25-250 nM, read-out: CDK1/CCNB IC50 (25-250 nM)): 25 to 250 nM | IC50 (CDK2/CCNE1; [9]): < 25 nM | IC50 (CDK4/CCND3; [10]): > 250 nM | IC50 (CDK6/CCND1; [11]): > 250 nM
Structure (SMILES): O=C1Nc2cc(C#Cc3nccc4cnc(Nc5ccc(S(=O)(=O)C6CCC6)cc5)cc34)ccc2C12CCC2 [Ex 387, 6'-((7-((4-(cyclobutylsulfonyl)phenyl)amino)-2,6-naphthyridin-1-yl)ethynyl)spiro[cyclobutane-1,3'-indolin]-2'-one]
